According to PMC5995566 (Biochemistry, 2017):
No end group written: not given here.

How the values were obtained:
human S100A6 (hA6) = human S100A6 (hA6) (Homo sapiens, UniProt P06703); assay: ITC of peptide binding to human S100A6; conditions: single-site model
hA5 A83m = assay: ITC of peptide binding to hA5 A83m mutant; parameters: species or system Homo sapiens; conditions: single ancestral reversion in hA5
human S100A5 (hA5) = biological target: T1, human S100A5 (hA5) (Homo sapiens, UniProt P33763); assay: ITC of peptide binding to human S100A5; conditions: 2 mM CaCl2, pH 7.4
T1 sequence (P33763 1-92): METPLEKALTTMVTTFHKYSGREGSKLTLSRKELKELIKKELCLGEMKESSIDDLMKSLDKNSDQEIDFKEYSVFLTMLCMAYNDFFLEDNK

S100A6 orthologs = assay: ITC of peptide binding to S100A6 orthologs; conditions: 2 mM CaCl2, pH 7.4
[1] = system: ancA6 (last common ancestor of S100A6 orthologs); assay: ITC of peptide binding to reconstructed ancestor ancA6

**Q.** How did the fx comp (human S100A6 (hA6); ITC fit parameter, same buffer) turn out when SEGLMNVLKKIYEDGDDDMKRTINKAWVESR [SIP] was run?
**A.** 1.5 ± 0.1

**Q.** What about the “ΔH°” value (human S100A6 (hA6); ITC, 25 mM TES, 100 mM NaCl, 2 mM CaCl2, 1 mM TCEP, pH 7.4, Bayesian fit) of the same sequence?
**A.** 2.9 ± 0.3 kcal/mol

**Q.** What about the “binding to hA5 A83m (in words)” value (hA5 A83m) of the same sequence?
**A.** enabled it to bind

**Q.** And the “binding to hA5 (in words)” value (human S100A5 (hA5))?
**A.** did not bind

**Q.** And the “binding to all S100A6 orthologs (in words)” value (S100A6 orthologs)?
**A.** bound

**Q.** What about the “binding to ancA6 (in words)” value [1] of the same sequence?
**A.** binding
